Measured values published in patent US20230233483A1, “COMPOUND AND METHOD FOR THE TREATMENT OF CORONAVIRUSES” (Apteeus, priority 2020, published 2023).

Test system: SARS-CoV-2 of lineage B1 containing the D614G mutation; SARS-CoV-2 of lineage B1.1.7
Type: cell-based

Q: For CC(C)(C)CC(C)(C)c1ccc(O)c(Cc2ccc(Cl)cc2Cl)c1 [clofoctol, 2-(2,4-Dichlorobenzyl)-4-(1,1,3,3-tetramethylbutyl)phenol], which “Genomic replication of variants of SARS-CoV-2 (RT-qPCR)” value is on record?
A: inhibits the genomic replication of variants of SARS-CoV-2
